33 compounds from patent US6897219B2, “Heteroaryl diazacycloalkanes, their preparation and use” (priority 1997, dated 2005) can be followed below.

Assay [1] addresses nAChRs comprised of α4 and β2 subunits (Rattus norvegicus, UniProt P09483+P12390). Briefly: In vitro inhibition of 3H-cytisine binding. How it is done: The predominant subtype with high affinity for nicotine is comprised of α4 and β2 subunits. nAChRs of the latter type can selectively be labelled by the nicotine agonist ^3H-cytisine.
Tissue Preparation: Preparations are performed at 0-4° C. unless otherwise indicated. […] The homogenate is centrifuged at 27,000×g for 10 min. The supernatant is discarded and the pellet is resuspended in fresh buffer and centrifuged a second time. The final pellet is resuspended in fresh buffer (35 ml per g of original tissue) and used for binding assays.
Assay: Aliquots of 500 μl homogenate are added to 25 μl of test solution and 25 μl of ^3H-cytisine (1 nM, final concentration), mixed and incubated for 90 min at 2° C. Non-specific binding is determined using (−)-nicotine (100 μM, final concentration). After incubation the samples are added 5 ml of ice-cold buffer and poured directly onto Whatman GF/C glass fibre filters under suction and immediately washed with 2×5 ml ice-cold buffer. The amount of radioactivity on the filters is determined by conventional liquid scintillation counting. Specific binding is total binding minus non-specific binding.

For assay [2], the target named is T1, neuronal nicotinic receptors (α4β2 subtype high affinity site) (Rattus norvegicus, UniProt P09483+P12390).
T1 construct: The forebrain (÷cerebellum) from a male Wistar rat (150-250 g) is homogenized; from tissue; host or cells: rat forebrain (without cerebellum) membrane homogenate
T1 sequence (P09483 31-630): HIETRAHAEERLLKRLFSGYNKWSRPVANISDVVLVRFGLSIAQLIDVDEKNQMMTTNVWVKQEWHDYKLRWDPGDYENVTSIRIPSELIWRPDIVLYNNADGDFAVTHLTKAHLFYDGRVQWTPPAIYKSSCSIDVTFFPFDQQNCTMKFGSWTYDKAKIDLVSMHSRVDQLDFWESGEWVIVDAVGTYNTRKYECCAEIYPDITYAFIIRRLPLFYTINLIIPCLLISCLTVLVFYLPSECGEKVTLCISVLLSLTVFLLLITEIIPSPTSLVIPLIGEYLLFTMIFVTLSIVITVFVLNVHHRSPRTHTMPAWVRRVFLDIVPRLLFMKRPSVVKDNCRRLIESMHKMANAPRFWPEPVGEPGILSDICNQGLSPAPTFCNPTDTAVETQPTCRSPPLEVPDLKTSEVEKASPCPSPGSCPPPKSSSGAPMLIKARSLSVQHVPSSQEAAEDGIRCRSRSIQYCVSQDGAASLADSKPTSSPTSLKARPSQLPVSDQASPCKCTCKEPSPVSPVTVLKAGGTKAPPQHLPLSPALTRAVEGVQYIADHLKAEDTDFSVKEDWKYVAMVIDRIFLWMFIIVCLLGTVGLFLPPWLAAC
T1 sequence (P12390 25-500): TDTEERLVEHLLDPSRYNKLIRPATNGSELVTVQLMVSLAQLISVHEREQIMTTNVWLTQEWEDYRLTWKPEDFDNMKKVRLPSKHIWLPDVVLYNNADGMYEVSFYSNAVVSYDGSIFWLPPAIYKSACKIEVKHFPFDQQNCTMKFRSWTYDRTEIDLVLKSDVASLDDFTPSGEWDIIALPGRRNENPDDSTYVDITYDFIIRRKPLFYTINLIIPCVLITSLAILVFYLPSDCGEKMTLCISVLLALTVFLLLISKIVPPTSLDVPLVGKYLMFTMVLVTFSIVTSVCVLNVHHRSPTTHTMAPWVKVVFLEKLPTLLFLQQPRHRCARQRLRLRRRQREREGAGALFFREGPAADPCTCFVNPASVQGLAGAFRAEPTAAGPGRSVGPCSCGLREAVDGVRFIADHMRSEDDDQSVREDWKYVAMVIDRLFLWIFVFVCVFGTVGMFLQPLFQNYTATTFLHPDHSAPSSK
Nature of the assay: In vitro inhibition of 3H-epibatidin binding. How it is done:
The high affinity binding site for ^3H-epibatidin is most certainly binding to the α4β2 subtype of nicotinic receptors. The identity of the low affinity site is still unknown; does it represent a second nicotinic receptor or a second site in the same receptor.
Tissue preparation: Preparations are performed at 0-4° C. unless otherwise indicated. The forebrain (÷cerebellum) from a male Wistar rat (150-250 g) is homogenized for 10-20 sec in 20 ml Tris, HCl (50 mM, pH 7.4) using an Ultra-Turrax homogenizer. The tissue suspension is centrifuged at 27,000×g for 10 min. The supernatant is discarded and the pellet is washed three times by centrifugation at 27,000×g for 10 min in 20 ml fresh buffer, and the final pellet is resuspended in fresh buffer (400 ml per g of original tissue) and used for binding assays.
Assay: Aliquots of 2.0 ml homogenate are added to 0.100 ml of test solution and 0.100 ml of ^3H-epibatidin (0.3 nM, final concentration), mixed and incubated for 60 min at room temperature. Non-specific binding is determined using (−)-nicotine (30 μM, final concentration). After incubation the samples are poured directly onto Whatman GF/C glass fibre filters (presoaked in 0.1% PEI for at least 20 min) under suction and immediately washed with 2×5 ml ice-cold buffer. The amount of radioactivity on the filters is determined by conventional liquid scintillation counting. Specific binding is total binding minus non-specific binding.

The target of assay [3] is nAChR formed by the α7 subunit isoform (Rattus norvegicus, UniProt Q05941). Nature of the assay: biochemical. It counts as binding.
Chain of nAChR formed by the α7 subunit isoform (Q05941 23-502): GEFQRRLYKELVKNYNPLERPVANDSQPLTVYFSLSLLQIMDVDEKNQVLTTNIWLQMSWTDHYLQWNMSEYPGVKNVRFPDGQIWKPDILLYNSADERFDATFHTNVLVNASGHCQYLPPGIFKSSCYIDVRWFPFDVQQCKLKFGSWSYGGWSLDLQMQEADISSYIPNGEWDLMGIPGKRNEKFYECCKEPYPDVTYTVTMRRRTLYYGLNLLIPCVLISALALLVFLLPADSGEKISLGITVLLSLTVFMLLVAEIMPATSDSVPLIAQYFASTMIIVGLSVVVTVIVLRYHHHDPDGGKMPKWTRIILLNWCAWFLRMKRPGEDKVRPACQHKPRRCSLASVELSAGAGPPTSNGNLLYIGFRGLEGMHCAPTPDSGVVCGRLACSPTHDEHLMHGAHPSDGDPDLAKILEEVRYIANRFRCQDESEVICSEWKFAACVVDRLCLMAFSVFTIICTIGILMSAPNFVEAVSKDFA
Where [4] appears, read: rat cerebral cortex homogenate, 1 nM 3H-cytisine, 90 min at 2° C., read-out: 3H-cytisine IC50.
Setting [5] is: rat forebrain homogenate, 0.3 nM 3H-epibatidin, 60 min at room temperature, read-out: 3H-epibatidin IC50.

pIC50: −log10 of the molar value. Read-outs that look alike come from different tables or passages of the source. Bounds are passed on as bounds.

Chain of nAChRs comprised of α4 and β2 subunits (P09483 31-630): as the sequence (P09483 31-630) above
Chain of nAChRs comprised of α4 and β2 subunits (P12390 25-500): as the sequence (P12390 25-500) above

By pIC50 is commonly meant the IC50 on a negative log10 scale, so that one unit is a factor of ten. As to `Clc1cncc(N2CCNCC2)c1` [Compound 4B, 1-(5-Chloro-3-pyridyl)-piperazine], the negative logarithm of the IC50 (pIC50) in assay [1] (setting [4]) is 6.51; in assay [2], 5.52; in assay [3], below 4.52.

Take `COc1cncc(N2CCNCC2)c1` [Compound 3B, 1-(5-Methoxy-3-pyridyl)-piperazine]: the pIC50 was 6.10 in assay [1] (setting [4]), 5.35 in assay [2] and below 4.52 in assay [3].

`CN1CCCN(c2cncc(-c3cccnc3)c2)CC1` [Compound 19E, 4-Methyl-1-[5-(3-pyridyl)-3-pyridyl]-homopiperazine]: the values for the negative logarithm of the IC50 (pIC50) in assay [1] (setting [4]), in assay [2] and in assay [3] were 6.77, 5.74 and below 4.52, respectively.

On to `CCCOc1cncc(N2CCCNCC2)c1` [Compound 10H, 1-(5-Propyloxy-3-pyridyl)-homopiperazine], for which the pIC50 in assay [1] was 9.05; in assay [2] it was 8.27; in assay [3], below 4.52.

For the compound `Clc1ccc(N2CCCCNCC2)nn1` [Compound 8B, 1-(6-Chloro-3-pyridazinyl)-1,4-diazacyclooctane], the pIC50 was 6.26 in assay [1] (setting [4]), 6.04 in assay [2] and 5.26 in assay [3].

Take `CCOc1cncc(N2CCCNCC2)c1` [Compound 3H, 1-(5-Ethoxy-3-pyridyl)-homopiperazine]: the pIC50 in assay [1] is 8.70; in assay [2], 8.00; in assay [3] it was 4.70.

`CN1CCCN(c2cncc(-c3ccccc3)c2)CC1` [Compound 5E, 4-Methyl-1-(5-phenyl-3-pyridyl)-homopiperazine]: the negative logarithm of the IC50 (pIC50) in assay [1] (setting [4]) is 6.70; in assay [2], 5.82; in assay [3], 4.80.

In the case of `c1cncc(N2CCNCC2)c1` [Compound 1B, 1-(3-Pyridyl)-piperazine], the values for the pIC50 in assay [1] (setting [4]), in assay [2] (setting [5]) and in assay [3] were 6.89, 6.20 and below 4.52, respectively.

Consider `CC(C)COc1cncc(N2CCCN(C)CC2)c1` [Compound 8E, 4-Methyl-1-[5-(2-methyl-propyloxy)-3-pyridyl]-homopiperazine], for which the negative-log IC50 (pIC50) in assay [1] was 7.15; in assay [2] (setting [5]), 6.35; in assay [3] it was below 4.52.

Regarding `CCCCCCCOc1cncc(N2CCCN(C)CC2)c1` [Compound 16E, 1-(5-Heptyloxy-3-pyridyl)-4-methyl-homopiperazine], the negative logarithm of the IC50 (pIC50) in assay [1] (setting [4]) is 6.55; in assay [2], 6.15; in assay [3], below 4.52.

With `Clc1ccc(N2CCCNCCC2)nn1` [Compound 7B, 1-(6-Chloro-3-pyridazinyl)-1,5-diazacyclooctane], the negative logarithm of the IC50 (pIC50) in assay [1] is 7.52; in assay [2] (setting [5]) it was 6.82; in assay [3], 6.34.

Take `CCCOc1cncc(N2CCCN(C)CC2)c1` [Compound 10E, 4-Methyl-1-(5-propyloxy-3-pyridyl)-homopiperazine]: the pIC50 in assay [1] was 7.22; in assay [2] (setting [5]) it was 6.54; in assay [3], below 4.52.

In the case of `CN1CCCN(c2cnc3ccccc3c2)CC1` [Compound 2E, 4-Methyl-1-(3-quinolinyl)-homopiperazine], the results for the pIC50 in assay [1] (setting [4]), in assay [2] and in assay [3] were 6.47, 5.31 and 5.74, respectively.

As for `COc1cncc(N2CCCN(C)CC2)c1` [Compound 3E, 1-(5-Methoxy-3-pyridyl)-4-methyl-homopiperazine], the negative logarithm of the IC50 (pIC50) in assay [1] is 7.03; in assay [2] (setting [5]) it was 6.12; in assay [3], 4.59.

`COc1cncc(N2CCCNCC2)c1` [Compound 1H, 1-(5-Methoxy-3-pyridyl)-homopiperazine]: the negative-log IC50 (pIC50) is 8.70 in assay [1], 7.70 in assay [2] and 5.52 in assay [3].

Consider `CN1CCCN(c2cncc(OCC3CC3)c2)CC1` [Compound 9E, 1-(5-Cyclopropylmethoxy-3-pyridyl)-4-methyl-homopiperazine], for which the figures for the pIC50 in assay [1], in assay [2] (setting [5]) and in assay [3] were 7.11, 5.32 and below 4.52, respectively.

For the compound `COc1cncc(N2CCCN(C)C2)c1` [Compound 2M, 1-(5-Methoxy-3-pyridyl)-3-methyl-1,3-diazacyclohexane], the negative logarithm of the IC50 (pIC50) is 7.05 in assay [1], 5.57 in assay [2] (setting [5]) and below 4.52 in assay [3].

As to `C/C=C/Oc1cncc(N2CCCN(C)CC2)c1` [Compound 17E, trans-4-Methyl-1-(5-propyl-1-en-oxy-3-pyridyl)-homopiperazine], the pIC50 is 7.70 in assay [1], 7.05 in assay [2] and below 4.52 in assay [3].

For `CN1CCCN(c2cccnc2)CC1` [Compound 1E, 4-Methyl-1-(3-pyridyl)-homopiperazine], the negative logarithm of the IC50 (pIC50) in assay [1] (setting [4]) was 6.82; in assay [2] it was 6.40; in assay [3], 5.34.

Consider `CN1CCCN(c2cncc(SCc3ccccc3)c2)CC1` [Compound 18E, 4-Methyl-1-(5-thiobenzyl-3-pyridyl)-homopiperazine], for which the pIC50 was 6.22 in assay [1] (setting [4]), 6.10 in assay [2] and 4.82 in assay [3].

As for `FC(F)(F)c1cncc(N2CCCNCC2)c1` [Compound 6K, 1-(5-Triflouromethyl-3-pyridyl)-homopiperazine], the results for the pIC50 in assay [1] (setting [4]), in assay [2] (setting [5]) and in assay [3] (read-out: 3H-α-bungarotoxin IC50) were 8.05, 7.40 and 5.19, respectively.

In the case of `CC(C)CCOc1cncc(N2CCCN(C)CC2)c1` [Compound 12E, 4-Methyl-1-[5-(3-methyl-butoxy)-3-pyridyl]-homopiperazine], the pIC50 was 7.26 in assay [1], 6.57 in assay [2] (setting [5]) and below 4.52 in assay [3].

As for `Cc1ccc(N2CCCNCC2)nn1` [Compound 5K, 1-(6-Methyl-3-pyridazinyl)-homopiperazine], the pIC50 is 6.80 in assay [1], 6.13 in assay [2] and 5.32 in assay [3].

As to `CCOc1cncc(N2CCCN(C)CC2)c1` [Compound 4E, 1-(5-Ethoxy-3-pyridyl)-4-methyl-homopiperazine], the pIC50 in assay [1] was 7.30; in assay [2] (setting [5]), 6.52; in assay [3], below 4.52.

In the case of `CN1CCN(c2cncc(-c3ccccc3)c2)CC1` [Compound 6A, 4-Methyl-1-(5-phenyl-3-pyridyl)-piperazine], the pIC50 is 7.10 in assay [1], 5.96 in assay [2] (setting [5]) and below 4.52 in assay [3].

Regarding `Clc1cncc(N2CCCNCC2)n1` [Compound 3K, 1-(6-Chloro-2-pyrazinyl)-homopiperazine], the values for the pIC50 in assay [1], in assay [2] and in assay [3] were 7.70, 6.80 and 5.25, respectively.

On to `CN1CCN(c2cncc(Cl)c2)CC1` [Compound 5A, 1-(5-Chloro-3-pyridyl)-4-Methyl-piperazine], for which the negative-log IC50 (pIC50) in assay [1] was 7.10; in assay [2] it was 6.19; in assay [3], 4.13.

For the compound `COc1cncc(N2CCN(C)C2)c1` [Compound 1M, 1-(5-Methoxy-3-pyridyl)-3-methyl-imidazolidine], the pIC50 was 6.23 in assay [1], 5.06 in assay [2] and below 4.52 in assay [3].

In the case of `CN1CCCN(c2cncc(OCC3CCCCC3)c2)CC1` [Compound 14E, 1-(5-Cyclohexylmethoxy-3-pyridyl)-4-methyl-homopiperazine], the figures for the pIC50 in assay [1] (setting [4]), in assay [2] and in assay [3] were 6.70, 6.32 and below 4.52, respectively.

In the case of `c1ccc2nc(N3CCCNCC3)cnc2c1` [Compound 2L, 1-(2-Quinoxalinyl)-homopiperazine], the negative logarithm of the IC50 (pIC50) is 6.59 in assay [1] (setting [4]), 5.70 in assay [2] and 4.57 in assay [3].

Turning to `CCOc1cncc(N2CCNCC2)c1` [Compound 1D, 1-(5-Ethoxy-3-pyridyl)piperazine], the values for the negative-log IC50 (pIC50) in assay [1] (setting [4]), in assay [2] and in assay [3] were 6.30, 6.00 and below 4.52, respectively.

Take `c1ccc(-c2cncc(N3CCCNCC3)c2)cc1` [Compound 2H, 1-(5-Phenyl-3-pyridyl)-homopiperazine]: the pIC50 was 8.52 in assay [1] (setting [4]), 7.70 in assay [2] and 4.43 in assay [3].

As to `CCCCCCOc1cncc(N2CCCN(C)CC2)c1` [Compound 11E, 1-(5-Hexyloxy-3-pyridyl)-4-methyl-homopiperazine], the results for the pIC50 in assay [1] (setting [4]), in assay [2] and in assay [3] were 6.10, 6.60 and below 4.52, respectively.
